Test results from patent publication US12697402B2, “Detection of colonic neoplasia in vivo using near-infrared peptide targeted against overexpressed cMet” (THE REGENTS OF THE UNIVERSITY OF MICHIGAN, priority 2019, dated 2026).
“Also recorded” adds a separate entry of the source. Peptide text beside a SMILES is read from it. * marks the point of attachment. X1 = CN1/C(=C/C=C/C=C/C2=[N+](CCCCCC(=O)*)c3ccc4ccccc4c3C2(C)C)C(C)(C)c2c1ccc1ccccc21

Key:
HT29 cells = test: Alamar blue assay, HT29; type: cell-based, human; details: 48 hours; HGF 25 ng/mL; peptide 5 or 100 μM
Procedure: (§1) An alamar blue assay was performed using HT29 and CCD841 cells. After culturing in serum free media overnight, about 3×10^3 cells were seeded per well in serum free media in 96 well plates at a final volume of 100 μL per well. […] Alamar blue reagent (10 μL) was added in amounts equal to 10% of the volume in the well, and incubated at 37° C. for 4 hours. Fluorescence with excitation at λex=530-560 nm, and emission at λex=590 nm, was measured.

[1] = test system: phosphorylation of cMet, AKT and ERK1/2; test: Effect of peptide on cell signaling (Western blot); type: cell-based, human; details: HT29 cells; 10, 30, 120 min; HGF 25 ng/mL; peptide 5 or 100 μM
Procedure: HT29 cells were treated with serum-free medium overnight for starvation before incubation with hHGF (hHGF, 294-HG-005, R&D) or peptides. Recombinant Human HGF Protein was added to HT29 cells at concentrations of 25 ng/ml for 10, 30, or 120 min in separate wells. QQT*-Cy5.5 and TLQ*-Cy5.5 were added at concentrations of 5 or 100 μM for 10, 30, and 120 min. Peptides were added at concentrations of 5 and 100 μM for 10, 30, or 120 min. Cells were then washed with 1×PBS and lysed with Pierce RIPA buffer containing Halt Phosphatase Inhibitor Cocktail (Thermo Fisher) and Halt Protease Inhibitor Cocktail (Thermo Fisher). Protein contents were quantified by Bicinchoninic Acid Assay (BCA). Anti-cMet antibody (Cell Signaling, #8198), phospho-cMet (Tyr1234/1235) antibody (Cell Signaling, #3077), anti-AKT antibody (Cell Signaling, #4691), anti-phospho-AKT antibody (Cell Signaling, #9271), anti-ERK1/2 antibody (Abcam, #ab17942), anti-phospho-ERK1/2 antibody (Abcam, #ab50011), and anti-tubulin antibody (Invitrogen, #32-2600) were used per manufacturer's instructions.

cMet (HT29 cells) = cMet (HT29 cells) (Homo sapiens, UniProt P08581); test: biochemical
Chain of cMet (HT29 cells) (P08581 25-1390): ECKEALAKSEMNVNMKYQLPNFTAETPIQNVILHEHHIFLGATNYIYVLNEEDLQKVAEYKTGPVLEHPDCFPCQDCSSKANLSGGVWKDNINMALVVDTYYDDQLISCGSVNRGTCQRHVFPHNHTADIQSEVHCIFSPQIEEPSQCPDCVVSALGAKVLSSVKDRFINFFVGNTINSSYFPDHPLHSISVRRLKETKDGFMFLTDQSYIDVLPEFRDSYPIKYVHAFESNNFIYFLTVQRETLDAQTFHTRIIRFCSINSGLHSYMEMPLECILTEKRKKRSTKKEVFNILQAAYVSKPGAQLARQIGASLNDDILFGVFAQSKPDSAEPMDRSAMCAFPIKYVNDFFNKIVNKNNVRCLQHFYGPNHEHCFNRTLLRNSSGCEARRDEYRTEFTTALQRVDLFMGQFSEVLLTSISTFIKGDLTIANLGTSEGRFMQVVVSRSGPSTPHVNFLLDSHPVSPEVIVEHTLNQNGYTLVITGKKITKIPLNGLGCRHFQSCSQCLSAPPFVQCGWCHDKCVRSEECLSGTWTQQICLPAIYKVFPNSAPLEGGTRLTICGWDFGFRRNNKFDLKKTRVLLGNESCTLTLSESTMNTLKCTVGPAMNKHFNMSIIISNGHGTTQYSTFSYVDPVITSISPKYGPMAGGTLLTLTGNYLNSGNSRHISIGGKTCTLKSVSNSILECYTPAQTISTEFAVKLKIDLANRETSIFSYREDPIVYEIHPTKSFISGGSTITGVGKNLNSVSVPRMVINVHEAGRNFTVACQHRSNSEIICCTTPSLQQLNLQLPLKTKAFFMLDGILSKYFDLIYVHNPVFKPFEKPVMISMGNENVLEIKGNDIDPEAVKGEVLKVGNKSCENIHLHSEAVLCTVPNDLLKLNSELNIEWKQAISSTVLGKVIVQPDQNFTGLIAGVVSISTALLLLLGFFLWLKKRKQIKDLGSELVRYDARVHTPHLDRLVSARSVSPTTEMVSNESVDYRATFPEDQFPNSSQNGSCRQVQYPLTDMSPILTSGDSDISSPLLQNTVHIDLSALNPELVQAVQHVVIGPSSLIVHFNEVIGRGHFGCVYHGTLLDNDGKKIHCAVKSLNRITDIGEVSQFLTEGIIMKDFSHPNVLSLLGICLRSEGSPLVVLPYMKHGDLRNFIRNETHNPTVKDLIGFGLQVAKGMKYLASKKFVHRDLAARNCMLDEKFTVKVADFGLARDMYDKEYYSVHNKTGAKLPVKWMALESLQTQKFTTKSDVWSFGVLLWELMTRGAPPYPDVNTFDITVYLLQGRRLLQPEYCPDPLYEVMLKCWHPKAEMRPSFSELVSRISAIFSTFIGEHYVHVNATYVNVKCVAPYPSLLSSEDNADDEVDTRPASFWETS
Procedure: Cells then were washed 3 times with 1×PBS containing 0.5% BSA to remove unbound peptides before analysis with flow cytometry (FACS Canto; BD Biosciences, San Jose, CA). Sample means were used to calculate the equilibrium dissociation constant KD using nonlinear regression analysis with Origin 6.1 data analysis software (OriginLab, Northampton, MA). KD=1/KA was calculated by performing a least-squares fit of the data to the nonlinear equation I[X]=(I0+Imaxka[X])/(I0+ka[X]). I0 and Imax are the initial and maximum fluorescence intensities, corresponding to no peptide and peptide saturation, respectively, and [X] represents the concentration of the bound peptide.^34

CCD841 cells = test: Alamar blue assay, CCD841; type: cell-based, human; details: normal colon cells; 48 hours; HGF 25 ng/mL; peptide 5 or 100 μM
Procedure: as §1

Compound	growth of HT29 cells (HT29 cells)	phosphorylation of cMet and downstream AKT and ERK1/2 [1]	Kd (cMet (HT29 cells)) [nM]	growth of CCD841 cells (CCD841 cells)
HGF: recombinant human hepatocyte growth factor, known ligand for cMet, positive control	increased growth	strong phosphorylation activity; also recorded: induced phosphorylation	–	–
CC(C)C[C@H](NC(=O)[C@H](CO)NC(=O)[C@H](Cc1c[nH]c2ccccc12)NC(=O)[C@H](CC(N)=O)NC(=O)[C@@H](NC(=O)[C@H](CCC(N)=O)NC(=O)[C@@H](N)CCC(N)=O)[C@@H](C)O)C(=O)NCC(=O)NCC(=O)NCC(=O)N[C@@H](CO)C(=O)N[C@@H](CCCCNC(=O)CCCCC[N+]1=C(/C=C/C=C/C=C2/N(C)c3ccc4ccccc4c3C2(C)C)C(C)(C)c2c1ccc1ccccc21)C(N)=O [QQT*-Cy5.5] (H-QQTNWSLGGGSK(X1)-NH2)	–	–	57	no effect on growth; also recorded: No change
